# Assays:
# Type in all cases: cell-based
# [1] = target: T1, human S1PR4 (Homo sapiens, UniProt O95977); experiment: Intracellular Ca2+ release (FLIPR) agonist potency, S1P4; details: recombinant CHO-K1 cells expressing human S1PR4, aequorin, Gq/i5; Calcium 5 FLIPR; read-out: S1P4 EC50
# T1 construct: host or cells: CHO-K1
# T1 sequence (O95977 1-384): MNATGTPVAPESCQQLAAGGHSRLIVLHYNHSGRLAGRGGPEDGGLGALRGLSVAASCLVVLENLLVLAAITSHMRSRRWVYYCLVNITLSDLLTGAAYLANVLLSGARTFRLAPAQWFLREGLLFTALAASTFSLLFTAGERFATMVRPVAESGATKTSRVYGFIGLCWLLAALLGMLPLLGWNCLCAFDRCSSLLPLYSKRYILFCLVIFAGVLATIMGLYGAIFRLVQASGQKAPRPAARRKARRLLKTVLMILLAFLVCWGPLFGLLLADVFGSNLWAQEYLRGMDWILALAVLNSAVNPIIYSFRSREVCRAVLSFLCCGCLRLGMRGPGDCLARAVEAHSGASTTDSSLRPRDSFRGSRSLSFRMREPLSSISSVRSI
# Method: (§1) Agonistic activity was measured using the method described below.
# (§2) Intracellular Ca^2+ Release
# (§3) Agonist potency and intrinsic activity was assessed by measurement of intracellular Ca^2+ release. Recombinant CHO-K1 cells (Euroscreen, Brussels, Belgium) expressing human S1PR5, S1PR1, S1PR3 or S1PR4 receptors, aequorin, and GTP binding protein Gq/i5 were cultured using a medium containing nutrient mixture F-12 Ham (Sigma-Aldrich) with 10% FBS, and 100 μg/mL gentamicin and equilibrated at 5% CO2.
# (§4) Phospho-fingolimod was used as positive control. Antagonists were pre-incubated for 10 min with cells before addition of the agonist (phospho-fingolimod at EC80). Measurements were performed using a fluorometric imaging plate reader FLIPR®tetra (Molecular Devices). Agonist at the human S1P receptors were characterized by deducing EC50 (potency) values from a nonlinear fit to the measured fluorescence raw data after normalization to the reference agonist (phospho-fingolimod) curve.
# [2] = target: T2, human S1PR5 (Homo sapiens, UniProt Q9H228); experiment: Intracellular Ca2+ release (FLIPR) agonist potency, S1P5; details: recombinant CHO-K1 cells expressing human S1PR5, aequorin, Gq/i5; Calcium 5 FLIPR; read-out: S1P5 EC50 range
# T2 construct: host or cells: CHO-K1
# T2 sequence (Q9H228 whole entry): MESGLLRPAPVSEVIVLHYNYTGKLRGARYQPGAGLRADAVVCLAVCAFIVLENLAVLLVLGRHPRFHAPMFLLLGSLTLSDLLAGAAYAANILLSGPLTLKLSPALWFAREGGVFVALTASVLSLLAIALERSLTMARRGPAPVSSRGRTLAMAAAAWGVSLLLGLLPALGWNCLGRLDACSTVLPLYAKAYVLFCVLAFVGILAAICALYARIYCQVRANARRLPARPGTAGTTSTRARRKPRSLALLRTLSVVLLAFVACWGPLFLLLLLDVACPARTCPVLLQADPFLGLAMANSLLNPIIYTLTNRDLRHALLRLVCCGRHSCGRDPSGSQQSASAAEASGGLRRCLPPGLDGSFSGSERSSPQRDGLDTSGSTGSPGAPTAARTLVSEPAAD
# Method: as §1, §2, §3, §4
# [3] = target: T3, human S1PR1 (Homo sapiens, UniProt P21453); experiment: Intracellular Ca2+ release (FLIPR) agonist potency, S1P1; details: recombinant CHO-K1 cells expressing human S1PR1, aequorin, Gq/i5; Calcium 5 FLIPR; read-out: S1P1 EC50
# T3 construct: host or cells: CHO-K1
# T3 sequence (P21453 whole entry): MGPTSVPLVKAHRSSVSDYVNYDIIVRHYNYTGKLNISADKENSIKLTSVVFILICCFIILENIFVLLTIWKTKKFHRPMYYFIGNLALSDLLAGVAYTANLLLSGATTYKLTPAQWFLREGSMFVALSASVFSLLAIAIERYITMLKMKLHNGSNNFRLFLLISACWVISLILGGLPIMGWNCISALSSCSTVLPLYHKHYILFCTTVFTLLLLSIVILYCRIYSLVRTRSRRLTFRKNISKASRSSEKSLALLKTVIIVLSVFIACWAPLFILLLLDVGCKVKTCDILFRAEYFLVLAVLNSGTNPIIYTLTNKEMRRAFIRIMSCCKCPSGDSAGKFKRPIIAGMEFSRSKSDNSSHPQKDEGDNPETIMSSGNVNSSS
# Method: as §1, §2, §3, §4
SMILES,EC50 [1] [µM],EC50 [2] [µM],EC50 [3] [µM]
"Cc1cccc(COc2ccc3c(c2)OCC(N2CC(C(=O)O)C2)C3)c1 (stereo not drawn) [Compound 58, 1-(7-((3-methylbenzyl)oxy)chroman-3-yl)azetidine-3-carboxylic acid]",> 1,1 to 10,> 1
"O=C(O)C1CN(C2COc3cc(OCc4cccc(C(F)(F)F)c4)ccc3C2)C1 (stereo not drawn) [Compound 59, 1-(7-((3-(trifluoromethyl)benzyl)oxy)chroman-3-yl)azetidine-3-carboxylic acid]",< 1,0.1 to 1,> 1
"O=C(O)C1CN(C2COc3cc(OCc4c(F)cccc4Cl)ccc3C2)C1 (stereo not drawn) [Compound 61, 1-(7-((2-chloro-6-fluorobenzyl)oxy)chroman-3-yl)azetidine-3-carboxylic acid]",> 1,0.1 to 1,> 1
"O=C(O)C1CN(C2COc3cc(OCc4ccccc4C(F)(F)F)ccc3C2)C1 (stereo not drawn) [Compound 62, 1-(7-((2-(trifluoromethyl)benzyl)oxy)chroman-3-yl)azetidine-3-carboxylic acid]",> 1,0.01 to 0.1,> 1
"O=C(O)C1CN(C2COc3cc(OCc4ccccc4Cl)ccc3C2)C1 (stereo not drawn) [Compound 63, 1-(7-((2-chlorobenzyl)oxy)chroman-3-yl)azetidine-3-carboxylic acid]",> 1,0.1 to 1,> 1
"Cc1cccc(Cl)c1COc1ccc2c(c1)OCC(N1CC(C(=O)O)C1)C2 (stereo not drawn) [Compound 71, 1-(7-((2-chloro-6-methylbenzyl)oxy)chroman-3-yl)azetidine-3-carboxylic acid]",> 1,0.1 to 1,> 1
"CCc1cccc(F)c1COc1ccc2c(c1)OCC(N(C)CC(=O)O)C2 (stereo not drawn) [Compound 72, 2-((7-((2-ethyl-6-fluorobenzyl)oxy)chroman-3-yl)(methyl)amino)acetic acid]",< 1,< 0.01,> 1
"CCc1cccc(Cl)c1COc1ccc2c(c1)CCC(NCC1(C(=O)O)CC1)C2 (stereo not drawn) [Compound 76, 1-(((6-((2-chloro-6-ethylbenzyl)oxy)-1,2,3,4-tetrahydronaphthalen-2-yl)amino)methyl)cyclopropanecarboxylic acid]",< 1,< 0.01,< 1
"Cc1cc(COc2ccc3c(c2)OCC(N2CC(C(=O)O)C2)C3)ccc1F (stereo not drawn) [Compound 84, 1-[7-[(4-fluoro-3-methyl-phenyl)methoxy]chroman-3-yl]azetidine-3-carboxylic acid]",> 1,1 to 10,> 1
"O=C(O)C1CN(C2COc3cc(OCc4ccc(F)c(C(F)(F)F)c4)ccc3C2)C1 (stereo not drawn) [Compound 85, 1-[7-[[4-fluoro-3-(trifluoromethyl)phenyl]methoxy]chroman-3-yl]azetidine-3-carboxylic acid]",> 1,1 to 10,> 1
"COc1cccc(COc2ccc3c(c2)OCC(N2CC(C(=O)O)C2)C3)c1F (stereo not drawn) [Compound 86, 1-[7-[(2-fluoro-3-methoxy-phenyl)methoxy]chroman-3-yl]azetidine-3-carboxylic acid]",> 1,1 to 10,> 1
"Cc1cc(F)cc(COc2ccc3c(c2)OCC(N2CC(C(=O)O)C2)C3)c1 (stereo not drawn) [Compound 87, 1-[7-[(3-fluoro-5-methyl-phenyl)methoxy]chroman-3-yl]azetidine-3-carboxylic acid]",> 1,1 to 10,> 1
"Cc1ccc(COc2ccc3c(c2)OCC(N2CC(C(=O)O)C2)C3)c(F)c1 (stereo not drawn) [Compound 88, 1-[7-[(2-fluoro-4-methyl-phenyl)methoxy]chroman-3-yl]azetidine-3-carboxylic acid]",> 1,1 to 10,> 1
"N#Cc1ccc(COc2ccc3c(c2)OCC(N2CC(C(=O)O)C2)C3)c(F)c1 (stereo not drawn) [Compound 89, 1-[7-[(4-cyano-2-fluoro-phenyl)methoxy]chroman-3-yl]azetidine-3-carboxylic acid]",> 1,1 to 10,> 1
"O=C(O)C1CN(C2COc3cc(OCc4cc(F)cc(C(F)(F)F)c4)ccc3C2)C1 (stereo not drawn) [Compound 90, 1-[7-[[3-fluoro-5-(trifluoromethyl)phenyl]methoxy]chroman-3-yl]azetidine-3-carboxylic acid]",< 1,0.01 to 0.1,> 1
"O=C(O)C1CN(C2COc3cc(OCc4cc(F)ccc4C(F)(F)F)ccc3C2)C1 (stereo not drawn) [Compound 91, 1-[7-[[5-fluoro-2-(trifluoromethyl)phenyl]methoxy]chroman-3-yl]azetidine-3-carboxylic acid]",> 1,0.1 to 1,> 1
"COc1cc(COc2ccc3c(c2)OCC(N2CC(C(=O)O)C2)C3)ccc1F (stereo not drawn) [Compound 92, 1-[7-[(4-fluoro-3-methoxy-phenyl)methoxy]chroman-3-yl]azetidine-3-carboxylic acid]",> 1,1 to 10,> 1
"O=C(O)C1CN(C2COc3cc(OCCOc4ccc(F)cc4)ccc3C2)C1 (stereo not drawn) [Compound 93, 1-[7-[2-(4-fluorophenoxy)ethoxy]chroman-3-yl]azetidine-3-carboxylic acid]",> 1,1 to 10,> 1
"O=C(O)C1CN(C2COc3cc(OCc4cccc(C(F)(F)F)c4F)ccc3C2)C1 (stereo not drawn) [Compound 94, 1-[7-[[2-fluoro-3-(trifluoromethyl)phenyl]methoxy]chroman-3-yl]azetidine-3-carboxylic acid]",> 1,1 to 10,> 1
"COc1ccc(COc2ccc3c(c2)OCC(N2CC(C(=O)O)C2)C3)cc1F (stereo not drawn) [Compound 95, 1-[7-[(3-fluoro-4-methoxy-phenyl)methoxy]chroman-3-yl]azetidine-3-carboxylic acid]",> 1,1 to 10,> 1
"Cc1c(F)cccc1COc1ccc2c(c1)OCC(N1CC(C(=O)O)C1)C2 (stereo not drawn) [Compound 96, 1-[7-[(3-fluoro-2-methyl-phenyl)methoxy]chroman-3-yl]azetidine-3-carboxylic acid]",> 1,0.1 to 1,> 1
"O=C(O)C1CN(C2COc3cc(OCCOc4cccc(F)c4)ccc3C2)C1 (stereo not drawn) [Compound 97, 1-[7-[2-(3-fluorophenoxy)ethoxy]chroman-3-yl]azetidine-3-carboxylic acid]",> 1,1 to 10,> 1
"COc1ccc(F)c(COc2ccc3c(c2)OCC(N2CC(C(=O)O)C2)C3)c1 (stereo not drawn) [Compound 98, 1-[7-[(2-fluoro-5-methoxy-phenyl)methoxy]chroman-3-yl]azetidine-3-carboxylic acid]",> 1,1 to 10,> 1
"O=C(O)C1CN(C2COc3cc(OCCCc4cccc(F)c4)ccc3C2)C1 (stereo not drawn) [Compound 99, 1-[7-[3-(3-fluorophenyl)propoxy]chroman-3-yl]azetidine-3-carboxylic acid]",> 1,1 to 10,> 1
"COc1cc(F)cc(COc2ccc3c(c2)OCC(N2CC(C(=O)O)C2)C3)c1 (stereo not drawn) [Compound 100, 1-[7-[(3-fluoro-5-methoxy-phenyl)methoxy]chroman-3-yl]azetidine-3-carboxylic acid]",> 1,1 to 10,> 1
"COc1cccc(F)c1COc1ccc2c(c1)OCC(N1CC(C(=O)O)C1)C2 (stereo not drawn) [Compound 101, 1-[7-[(2-fluoro-6-methoxy-phenyl)methoxy]chroman-3-yl]azetidine-3-carboxylic acid]",> 1,1 to 10,> 1
"O=C(O)C1CN(C2COc3cc(OCCCCOc4cccc(F)c4)ccc3C2)C1 (stereo not drawn) [Compound 102, 1-[7-[4-(3-fluorophenoxy)butoxy]chroman-3-yl]azetidine-3-carboxylic acid]",> 1,1 to 10,> 1
"O=C(O)C1CN(C2COc3cc(OCc4ccc(C(F)(F)F)c(F)c4)ccc3C2)C1 (stereo not drawn) [Compound 103, 1-[7-[[3-fluoro-4-(trifluoromethyl)phenyl]methoxy]chroman-3-yl]azetidine-3-carboxylic acid]",> 1,1 to 10,> 1
"O=C(O)C1CN(C2COc3cc(OCc4cc(OC(F)(F)F)ccc4F)ccc3C2)C1 (stereo not drawn) [Compound 104, 1-[7-[[2-fluoro-5-(trifluoromethoxy)phenyl]methoxy]chroman-3-yl]azetidine-3-carboxylic acid]",> 1,0.1 to 1,> 1
